Series [1] in a line: Drug uptake in PSMA-negative human PC3 cells measured after 2 hrs by DAPI staining based fluorescence assay. It is filed as ADME, cell-based. The settings on record: pc-3, 2 h.
Series [2] addresses T1, Glutamate carboxypeptidase 2 (Homo sapiens, UniProt Q04609). Nature of the series: Binding affinity to PSMA in human LNCAP cells measured after 2 hrs by DAPI staining based fluorescence assay. It is filed as ADME, cell-based.
Series [3] in a line: Antitumor activity against PSMA-positive human PC3-PIP cells xenografted in nu/nu mouse assessed as tumor growth inhibition at 4 mg/kg, ip per week for 3 weeks relative to control. As to conditions: 504 h, read-out: TGI. It counts as functional.
Another series relates to LNCaP C4-2. Nature of the series: Cytotoxicity against PSMA-positive human C4-2 cells by cellTiter 96 aqueous cell proliferation assay. It counts as functional, cell-based.
A short description of series [4]: Ratio of drug level in nucleus to cytoplasm of PSMA-positive human LNCAP cells measured after 40 milliseconds. It counts as ADME.
Another series has as its system LNCaP. Nature of the series: Cytotoxicity against PSMA-positive human LNCAP cells by MTT assay. It counts as functional.
Series [5] deals with PC-3. Nature of the series: Cytotoxicity against PSMA-negative human PC3 cells by MTT assay. It is filed as functional.
A short description of series [6]: Ratio of drug level in nucleus to cytoplasm of PSMA-negative human PC3 cells measured after 40 milliseconds. It counts as ADME.
A short description of series [7]: Drug uptake in nucleus of PSMA-positive human LNCAP cells at 15 uM measured after 2 hrs by DAPI staining based fluorescence assay. It counts as ADME, subcellular.
Series [8] in a line: Drug uptake in nucleus of PSMA-positive human LNCAP cells measured after 48 hrs. It is filed as ADME, subcellular.
Series [9] concerns PC-3. Nature of the series: Cytotoxicity against PSMA-negative human PC3 cells by cellTiter 96 aqueous cell proliferation assay. It counts as functional, cell-based.
Series [10] can be described thus: Drug uptake in nucleus of PSMA-negative human PC3 cells at 15 uM measured after 2 hrs by DAPI staining based fluorescence assay. It is filed as ADME, subcellular. The settings on record: pc-3, 2 h.
Series [11] is described as follows: Drug uptake in cytoplasm of PSMA-negative human PC3 cells measured after 40 milliseconds. It counts as ADME, subcellular. The settings on record: pc-3.
Series [12] is described as follows: Drug uptake in nucleus of PSMA-negative human PC3 cells measured after 40 milliseconds. It counts as ADME, subcellular. The settings on record: pc-3.
In series [13] the target is T1, Glutamate carboxypeptidase 2. Nature of the series: Binding affinity to PSMA in human LNCAP cells assessed as doxorubicin release in cytoplasm measured after 48 hrs. It counts as ADME, cell-based.
The target is the same in series [14]. Nature of the series: Binding affinity to PSMA in human LNCAP cells assessed as doxorubicin release in nucleus measured after 40 milliseconds. It counts as ADME, cell-based.
Series [15] has the same target. Nature of the series: Binding affinity to PSMA in human LNCAP cells assessed as doxorubicin release in cytoplasm measured after 40 milliseconds. It counts as ADME, cell-based.

Active and inactive are the calls of the source. The rule behind the calls is not given here.

T1 sequence (Q04609 whole entry): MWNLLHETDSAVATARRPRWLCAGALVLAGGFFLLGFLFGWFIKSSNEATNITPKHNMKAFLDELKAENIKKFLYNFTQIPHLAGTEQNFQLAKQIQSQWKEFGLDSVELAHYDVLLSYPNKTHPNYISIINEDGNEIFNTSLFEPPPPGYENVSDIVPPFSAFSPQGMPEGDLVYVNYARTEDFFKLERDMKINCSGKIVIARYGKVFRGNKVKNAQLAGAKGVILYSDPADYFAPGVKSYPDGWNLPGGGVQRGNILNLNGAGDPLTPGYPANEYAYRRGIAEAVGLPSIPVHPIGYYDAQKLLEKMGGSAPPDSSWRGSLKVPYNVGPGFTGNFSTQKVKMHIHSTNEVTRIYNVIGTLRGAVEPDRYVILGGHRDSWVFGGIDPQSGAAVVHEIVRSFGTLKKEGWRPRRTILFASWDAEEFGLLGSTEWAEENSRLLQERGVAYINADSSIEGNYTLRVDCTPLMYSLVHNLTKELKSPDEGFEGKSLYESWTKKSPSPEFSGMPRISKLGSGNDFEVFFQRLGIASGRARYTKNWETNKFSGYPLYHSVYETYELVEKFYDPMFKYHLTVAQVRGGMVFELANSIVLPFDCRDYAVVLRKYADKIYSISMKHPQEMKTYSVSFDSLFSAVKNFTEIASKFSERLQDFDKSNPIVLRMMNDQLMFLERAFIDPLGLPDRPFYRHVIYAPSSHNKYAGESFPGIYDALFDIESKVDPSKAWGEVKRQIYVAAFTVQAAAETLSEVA

`CN1\C(=C/C=C/C=C/C2=[N+](CCCCCC(=O)NCCCCCCCCCCC(=O)NCCCC[C@H](NC(=O)N[C@@H](CCC(=O)O)C(=O)O)C(=O)O)c3cc(S(=O)(=O)[O-])ccc3C2(C)C)C(C)(C)c2cc(S(=O)(=O)[O-])ccc21.[Na+]`: in series [1], the Drug uptake result is on record as “Not Active”. The outcome in series [2] was Active.
As for `COc1cccc2c1C(=O)c1c(O)c3c(c(O)c1C2=O)C[C@@](O)(C(=O)CO)C[C@@H]3O[C@H]1C[C@H](N)[C@H](O)[C@H](C)O1` [DOXORUBICIN], the inhibition in vivo at 4 mg/kg in series [3] turned out to be 92%. Also, the IC50 in the series with LNCaP C4-2 and in the series on PC-3 [9] was over 32 nM in each case. The Ratio in [4] is 3.5; in series [6] it was 3.7. The CC50 was 107 nM with LNCaP and under 500 nM in the series with PC-3 [5]. Moreover, the Drug uptake result in [7], in [8] and in [10] was “Active” each time.
For `COc1cccc2c1C(=O)c1c(O)c3c(c(O)c1C2=O)C[C@@](O)(C(=O)CO)C[C@@H]3O[C@H]1C[C@H](NC(=O)CCC(=O)NCCCCCCCCCCC(=O)NCCCC[C@H](NC(=O)N[C@@H](CCC(=O)O)C(=O)O)C(=O)O)[C@H](O)[C@H](C)O1`, the outcome in the series with LNCaP C4-2 and in the series on PC-3 [9] was inactive. Besides, the Drug uptake result in series [11] and in series [12] was “Not Active” each time. Further, the CC50 result in the series on LNCaP and with PC-3 [5] was “inactive” in each case. The Activity entry in [13] is reported as “Active”; in [14] it was “Not Active”; in series [15], “Not Active”.

These data come from ChEMBL document CHEMBL4392830, “Synthesis and biological evaluation of Doxorubicin-containing conjugate targeting PSMA” (Bioorg Med Chem Lett, 2019).
